Columns and labels:
[1] = tested on: alveolar epithelial cells; assay: Construction of a basement membrane according to the MMP inhibition method; assay type: cell-based; settings: 2 weeks on fib, 1% fetal bovine serum, no basement membrane components added
Experimental: Alveolar epithelial cells were cultured on collagen fiber (fib) with the only addition of 1% fetal bovine serum and synthetic inhibitor of matrix metalloproteinase (MMP) and without the addition of basement membrane components for 2 weeks. As MMP inhibitor, GM6001 (Calbiochem) and MMP-2/MMP-9 inhibitor I (Calbiochem) were used. 1.1 μM of GM6001 and 310 μM of MMP-2/MMP-9 inhibitor I (2/9 inhibitor) were added respectively.

[2] = tested on: type II alveolar epithelial cells; assay: Basement membrane formation by alveolar epithelial cells on collagen fiber (fib) with Matrigel or TGF-β (T2-fib-MG, T2-fib-TGFβ); assay type: cell-based, rat; settings: fibrous collagen substratum, TGF-β in upper and lower wells (T2-fib-TGFβ)
Source text: The present inventors made a study on a process to form a basement membrane structure just beneath the basal surface of epithelial cells on a fibrous collagen matrix by the coculture with fibroblasts-embedded collagen gel, and by the culture in the presence of TGF-β or Matrigel. […] However, it was also confirmed that type II alveolar epithelial cells were unable to constitute a basement membrane without the supply of, for example, a fibroblast, exogenous basement membrane components from Matrigel or a growth factor TGF-β, since the endogenous basement membrane components from type II alveolar epithelial cells are not enough for the cells to assemble a basement membrane structure effectively. […]

In the case of O=C(O)[C@@H](Cc1ccccc1)NS(=O)(=O)c1ccc(-c2ccccc2)cc1 [MMP-2/MMP-9 inhibitor I], the “basement membrane structure formation beneath the cells” value ([1]; 310 μM) is reported as “complete basement membrane structure (▴) was formed”.

For TGF-β, the “basement membrane formation by type II alveolar epithelial cells” value [2] was “a basement membrane was formed”.

With CNC(=O)[C@H](Cc1c[nH]c2ccccc12)NC(=O)[C@@H](CC(=O)NO)CC(C)C [GM6001] the “basement membrane structure formation beneath the cells” value ([1]; 1.1 μM) was “complete basement membrane structure (▴) was formed”.

Source: US7906332B2, “Method of preparing basement membrane, method of constructing basement membrane specimen, reconstituted artificial tissue using the basement membrane specimen and process for producing the same” (Japan Science And Technology Agency, priority 2001, dated 2011)
